Drawing on ChEMBL document CHEMBL1133598, “Synthesis, molecular modeling, and pharmacological testing of bis-quinolinium cyclophanes: potent, non-peptidic blockers of the apamin-sensitive Ca(2+)-activated K(+) channel” (J Med Chem, 2000), this text covers EMR and IC50 for 31 compounds.

Assay [1] deals with Small conductance calcium-activated potassium channel (Rattus norvegicus) (UniProt P70604+P70606+P70605). Put plainly: The ratio of compound concentrations and dequalinium that cause 50% inhibition of the after-hyperpolarization. The format is functional.
Assay [2] concerns the target Small conductance calcium-activated potassium channel (Rattus norvegicus, UniProt P70604+P70606+P70605). The assay can be described thus: The blocking of apamin-sensitive [Ca2+]-activated K+ (SKCa) channel was assessed by the compounds ability to inhibit the after-hyperpolarization in cultured rat superior cervical ganglion neurons. Type of assay: functional.

In general, IC50 refers to the midpoint of a concentration-inhibition curve. With `Nc1cc[n+](Cc2ccc(-c3cccc(-c4ccc(C[n+]5ccc(N)c6ccccc65)cc4)n3)cc2)c2ccccc12`, the EMR in assay [1] turned out to be 0.59. Further, the IC50 in assay [2] came to 360 nM.

With `c1ccc2c(c1)c1cc[n+]2Cc2ccc(cc2)C[n+]2ccc(c3ccccc32)NCc2ccc(cc2)CN1`, in assay [1], the EMR came to 0.05. For the same compound, the IC50 in assay [2] worked out at 28 nM.

Turning to `c1ccc2c(c1)c1cc[n+]2CCCCCCCCCC[n+]2ccc(c3ccccc32)NCc2ccc(cc2)-c2ccc(cc2)CN1`, the EMR in assay [1] worked out at 0.25. Further, the IC50 in assay [2] was found to be 210 nM.

For the compound `Nc1cc[n+](Cc2cccc(C[n+]3ccc(N)c4ccccc43)c2)c2ccccc12`, in assay [1], the EMR was determined as 1.32.

For `Oc1c2cccc1C[n+]1ccc(c3ccccc31)NCc1ccc(cc1)CNc1cc[n+](c3ccccc13)C2`, the EMR in assay [1] was found to be 0.14. Moreover, the IC50 in assay [2] was determined as 60 nM.

With `Nc1cc[n+](Cc2ccc(/C=C\c3ccc(C[n+]4ccc(N)c5ccccc54)cc3)cc2)c2ccccc12`, the EMR in assay [1] was found to be 0.24. Further, in assay [2], the IC50 worked out at 190 nM.

`c1ccc2c(c1)c1cc[n+]2Cc2ccc(cc2)Cc2ccc(cc2)C[n+]2ccc(c3ccccc32)NCCCCCCCCCCN1` [UCL-1530]: the EMR in assay [1] amounted to 0.16. In assay [2], the IC50 is recorded as 80 nM.

Take `Nc1cc[n+](Cc2ccc3c(c2)Cc2cc(C[n+]4ccc(N)c5ccccc54)ccc2-3)c2ccccc12`: in assay [1], the EMR was 0.33. Further, in assay [2], the IC50 amounted to 310 nM.

Turning to `c1ccc2c(c1)c1cc[n+]2Cc2ccc(cc2)CCc2ccc(cc2)C[n+]2ccc(c3ccccc32)NCCCCCCCCCCN1`, the EMR in assay [1] came to 0.57. Moreover, in assay [2], the half-maximal inhibitory concentration (IC50) is 180 nM.

As for `Nc1cc[n+](Cc2ccc(CCc3ccc(C[n+]4ccc(N)c5ccccc54)cc3)cc2)c2ccccc12`, the EMR in assay [1] stood at 0.71. Besides, the IC50 in assay [2] is 410 nM.

`c1ccc2c(c1)c1cc[n+]2Cc2ccc3c(c2)Cc2cc(ccc2-3)C[n+]2ccc(c3ccccc32)NCCCCCCCCCCN1`: in assay [1], the EMR was 0.11. Besides, the 50% inhibitory concentration (IC50) in assay [2] is given as 90 nM.

With `c1cc2cc(c1)C[n+]1ccc(c3ccccc31)NCc1ccc(cc1)CNc1cc[n+](c3ccccc13)C2`, the EMR in assay [1] was determined as 0.01. The IC50 in assay [2] stood at 3 nM.

As for `c1ccc2c(c1)c1cc[n+]2Cc2ccc(cc2)-c2ccc(cc2)C[n+]2ccc(c3ccccc32)NCc2ccc(cc2)-c2ccc(cc2)CN1`, the EMR in assay [1] turned out to be 0.89. For the same compound, in assay [2], the IC50 is on record as 430 nM.

On to `C1=C\c2ccc(cc2)C[n+]2ccc(c3ccccc32)NCc2ccc(cc2)Cc2ccc(cc2)CNc2cc[n+](c3ccccc23)Cc2ccc/1cc2`, for which the EMR in assay [1] worked out at 1.1. In assay [2], the IC50 stood at 250 nM.

For `c1ccc2c(c1)c1cc[n+]2Cc2ccc3c(c2)Cc2cc(ccc2-3)C[n+]2ccc(c3ccccc32)NCc2ccc(cc2)-c2ccc(cc2)CN1`, the EMR in assay [1] is 0.15. For the same compound, the IC50 in assay [2] amounted to 120 nM.

For `Cc1cc(N)c2ccccc2[n+]1CCCCCCCCCC[n+]1c(C)cc(N)c2ccccc21.[Cl-].[Cl-]` [DEQUALINIUM CHLORIDE], the EMR in assay [1] is 1. Further, in assay [2], the IC50 is recorded as 650 nM.

For `c1cc2nc(c1)-c1ccc(cc1)C[n+]1ccc(c3ccccc31)NCc1ccc(cc1)Cc1ccc(cc1)CNc1cc[n+](c3ccccc13)Cc1ccc-2cc1`, the EMR in assay [1] worked out at 0.88. Further, in assay [2], the IC50 is 380 nM.

In the case of `Oc1c2cc(I)cc1C[n+]1ccc(c3ccccc31)NCc1ccc(cc1)CNc1cc[n+](c3ccccc13)C2`, in assay [1], the EMR is 0.16. The IC50 in assay [2] amounted to 100 nM.

In the case of `C1=C\c2ccc(cc2)C[n+]2ccc(c3ccccc32)NCCCCCCCCCCNc2cc[n+](c3ccccc23)Cc2ccc/1cc2`, in assay [1], the EMR stood at 0.29. For the same compound, in assay [2], the IC50 was 150 nM.

On to `Nc1cc[n+](Cc2ccc(-c3ccc(C[n+]4ccc(N)c5ccccc54)cc3)cc2)c2ccccc12`, for which the EMR in assay [1] worked out at 0.4. In addition, the IC50 in assay [2] was found to be 380 nM.

`c1cc2cc(c1)CNc1cc[n+](c3ccccc13)Cc1ccc(cc1)C[n+]1ccc(c3ccccc31)NC2`: in assay [1], the EMR came to 0.18. Moreover, the IC50 in assay [2] turned out to be 70 nM.

Take `c1ccc2c(c1)c1cc[n+]2Cc2ccc(cc2)-c2ccc(cc2)C[n+]2ccc(c3ccccc32)NCCCCCCCCCCN1`: the EMR in assay [1] worked out at 0.26. For the same compound, the IC50 in assay [2] amounted to 170 nM.

Turning to `Nc1cc[n+](Cc2ccc(Cc3ccc(C[n+]4ccc(N)c5ccccc54)cc3)cc2)c2ccccc12`, the EMR in assay [1] was 0.39. In assay [2], the IC50 is on record as 450 nM.

Take `c1cc2cc(c1)CNc1cc[n+](c3ccccc13)Cc1cccc(c1)C[n+]1ccc(c3ccccc31)NC2`: in assay [1], the EMR is 0.22. In assay [2], the IC50 turned out to be 130 nM.

`c1ccc2c(c1)c1cc[n+]2Cc2ccc(cc2)Cc2ccc(cc2)C[n+]2ccc(c3ccccc32)NCc2ccc(cc2)Cc2ccc(cc2)CN1`: in assay [1], the EMR was 0.31. In addition, the IC50 in assay [2] is reported as 260 nM.

Take `c1cc2cc(c1)-c1cccc(c1)C[n+]1ccc(c3ccccc31)NCCCCCCCCCCNc1cc[n+](c3ccccc13)C2`: the EMR in assay [1] worked out at 0.28. Moreover, the IC50 in assay [2] was found to be 110 nM.

In the case of `COc1c2cccc1C[n+]1ccc(c3ccccc31)NCc1ccc(cc1)CNc1cc[n+](c3ccccc13)C2`, the EMR in assay [1] was determined as 0.019. Further, the IC50 in assay [2] amounted to 25 nM.

Consider `Nc1cc[n+](Cc2cccc(-c3cccc(C[n+]4ccc(N)c5ccccc54)c3)c2)c2ccccc12`, for which, in assay [1], the EMR came out at 0.55. In addition, the IC50 in assay [2] amounted to 290 nM.

As for `c1ccc2c(c1)c1cc[n+]2Cc2ccc(cc2)-c2ccc(cc2)C[n+]2ccc(c3ccccc32)NCc2ccc(cc2)Cc2ccc(cc2)CN1`, the EMR in assay [1] is 0.26. Further, in assay [2], the IC50 is 150 nM.

For the compound `c1ccc2c(c1)c1cc[n+]2Cc2ccc(cc2)Cc2ccc(cc2)C[n+]2ccc(c3ccccc32)NCc2ccc(cc2)-c2ccc(cc2)CN1`, the EMR in assay [1] worked out at 0.8. In addition, in assay [2], the 50% inhibitory concentration (IC50) amounted to 280 nM.

With `Nc1cc[n+](Cc2ccc(C[n+]3ccc(N)c4ccccc43)cc2)c2ccccc12`, the EMR in assay [1] came out at 3.7. Further, the IC50 in assay [2] was found to be 2800 nM.
